The values that follow come from patent publication US20100144599A1, “VEGF PATHWAY BLOCKADE” (Bristol-Myers Squibb Company, priority 2007, published 2010).

For series [1] the following is noted: Bhuyan et al., Cancer Res. 42 (1982); cited from earlier work.
The next series deals with Colo205 colon carcinoma. Put plainly: Tumor inhibition, Colo-205 colon carcinoma xenogeneic s.c. model. It counts as in vivo, Human. The following applies: 60 mg/kg, treatment started at average tumor size 200 mm^3, Kaplan Meier (FIG. 3). The method, then:
(§1) The anti-tumor effect of Comp-I was compared to bevacizumab treatment in a model of colon (Colo205 colon carcinoma) and brain (U87 glioblastoma) tumors.
The anti-tumor effect of Comp-I was also compared to treatment with sunitinib and sorafenib in a Colo205 colon carcinoma model. FIG. 3 depicts a Kaplan Meier Survival analysis on the length of time for individual tumors to reach a given size. […] All three compounds were administered at 60 mg/kg.

A short description of series [2]: Toxicity study in the Colo205 colon carcinoma model. Conditions: sunitinib 60 mg/kg/day, sorafenib 80 mg/kg/day. Type of series: in vivo. The method, then: An additional study was performed using the Colo205 colon carcinoma model to test the toxicity of sunitinib (60 mg/kg/day), sorafenib (80 mg/kg/day), and Comp-I (30 mg/kg/day) treatment.
Another series deals with U87 glioblastoma. Put plainly: Tumor inhibition, U87 glioblastoma xenograft model. Type of series: in vivo, Human. The following applies: nude male mice, 30 mg/kg Comp-I or 5 mg/kg bevacizumab bi-weekly, 20 days (FIG. 2). As for the experimental part:
The effect of Comp-I and bevacizumab treatment was assessed in a U87 xenograft model of human glioblastoma (FIG. 2). Briefly, nude male mice, 6-7 weeks of age, were implanted with U87 glioblastoma tumor cells (5×10^6) subcutaneously on the right flank. Tumor growth was monitored 2 times per week using caliper measurement. Drug treatment was initiated after the tumors reached a size of at least 50 mm^3.Tumor growth inhibition over vehicle was greater in Comp-I (56%) as compared to bevacizumab (35%) treatment.
as §1
For orientation: Xenograft models place foreign cells or tissue in a host animal.

For the molecule `COc1c(O)c2c(c3cc(C(=O)N4CCc5c4c(O)c(OC)c4[nH]c(C(=O)N6CC7CC78C6=CC(=O)c6[nH]cc(C)c68)cc54)[nH]c13)CCN2C(N)=O` (stereo not drawn) [CC-1065], in series [1], the “potency in vitro relative to commonly used anti-cancer drugs, such as doxorubicin, methotrexate and vincristine” value is “about 1000 fold”.

`CCN(CC)CCNC(=O)c1c(C)[nH]c(/C=C2\C(=O)Nc3ccc(F)cc32)c1C` [sunitinib]: the “tumors remaining under 500 mm^3” value with Colo205 colon carcinoma is listed as “around 60%”. Also, the mice survived in series [2] was 12/15.

With bevacizumab, the “Tumor growth inhibition over vehicle” value in the series on U87 glioblastoma is reported as 35%.

As for `CNC(=O)c1cc(Oc2ccc(NC(=O)Nc3ccc(Cl)c(C(F)(F)F)c3)cc2)ccn1` [sorafenib], the “tumors remaining under 500 mm^3” value with Colo205 colon carcinoma is on record as “around 60%”. In series [2], the mice survived is reported as 14/15.
